Results taken from patent US20250228239A1, “MOLECULES HAVING PESTICIDAL UTILITY, AND INTERMEDIATES, COMPOSITIONS, AND PROCESSES, RELATED THERETO” (priority 2024, published 2025).

Assays:
Format in all cases: in vivo
[1] = test system: Beet Armyworm (Spodoptera exigua, LAPHEG); experiment: Bioassays on Beet Armyworm (BAW), 128-well diet tray assay; settings: Spodoptera exigua; Beet Armyworm, Table ABC / ABC-DP rating; read-out: BAW rating
Outline: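 Larvae at second instar are exposed on dried, compound-treated diet (50 μg/cm^2, delivered in 90:10 acetone-water) in eight replicate wells. After five to seven days at 25° C., 14:10 light-dark, percent mortality in each well is scored and the eight wells averaged.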

[2] = test system: Cabbage Looper (Trichoplusia ni, TRIPNI); experiment: Bioassays on Cabbage Looper (CL), 128-well diet tray assay; settings: Trichoplusia ni; Cabbage Looper, Table ABC / ABC-DP rating; read-out: CL rating
Outline: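 Second-instar larvae (1–5 per well) placed on artificial diet surface-treated with 50 μg/cm^2 test molecule applied in 90:10 acetone-water and dried. Held at 25° C., 14:10 light-dark, for five to seven days. Percent mortality scored per well and averaged over eight wells.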

[3] = test system: Yellow Fever Mosquito (Aedes aegypti, AEDSAE); settings: Yellow Fever Mosquito, Table ABC / ABC-DP rating
Outline: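 Rating-scale grades reflect larval mortality scored per well after 3 days at room temperature under non-evaporative lids. Larvae (~1 day old, hatched overnight in liver-powder water) were added to six daughter plates per compound, prepared from a 4000 ppm DMSO stock diluted in 90:10 water/acetone.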

O=C(CCC(F)(F)C(F)(F)F)Nc1c(F)ccc(NC(=O)c2cc(NC(=O)[C@H]3[C@H](c4ccc(F)c(C(F)(F)F)c4)C3(Cl)Cl)ccc2Cl)c1F [F1844, 2-Chloro-5-((1R,3R)-2,2-dichloro-3-(4-fluoro-3-(trifluoromethyl)phenyl)cyclopropane-1-carboxamido)-N-(2,4-difluoro-3-(4,4,5,5,5-pentafluoropentanamido)phenyl)benzamide]
pest or weed control at 50 µg/cm2 [1]: 50 to 100% | pest or weed control at 50 µg/cm2 [2]: 50 to 100% | YFM rating [3]: A (80–100)

O=C(CCC(F)(F)F)Nc1c(F)ccc(NC(=O)c2cc(NC(=O)[C@H]3[C@H](c4ccc(Cl)c(Cl)c4)C3(Cl)Cl)ccc2Cl)c1F [F1847, 2-Chloro-5-((1R,3R)-2,2-dichloro-3-(3,4-dichlorophenyl)cyclopropane-1-carboxamido)-N-(2,4-difluoro-3-(4,4,4-trifluorobutanamido)phenyl)benzamide]
pest or weed control at 50 µg/cm2 [1]: 50 to 100% | pest or weed control at 50 µg/cm2 [2]: 50 to 100% | YFM rating [3]: A (80–100)

O=C(CCC(F)(F)F)Nc1c(F)ccc(NC(=O)c2cc(NC(=O)[C@H]3[C@H](c4ccc(F)c(Cl)c4)C3(Cl)Cl)ccc2Cl)c1F [F1848, 2-Chloro-5-((1R,3R)-2,2-dichloro-3-(3-chloro-4-fluorophenyl)cyclopropane-1-carboxamido)-N-(2,4-difluoro-3-(4,4,4-trifluorobutanamido)phenyl)benzamide]
pest or weed control at 50 µg/cm2 [1]: 50 to 100% | pest or weed control at 50 µg/cm2 [2]: 50 to 100% | YFM rating [3]: A (80–100)

CC(Br)CC(=O)Nc1c(F)ccc(NC(=O)c2cc(NC(=O)[C@H]3[C@H](c4ccc(F)c(C(F)(F)F)c4)C3(Cl)Cl)ccc2Cl)c1F (stereo partly drawn) [F1853, N-(3-(3-Bromobutanamido)-2,4-difluorophenyl)-2-chloro-5-((1R,3R)-2,2-dichloro-3-(4-fluoro-3-(trifluoromethyl)phenyl)cyclopropane-1-carboxamido)benzamide]
pest or weed control at 50 µg/cm2 [1]: 50 to 100% | pest or weed control at 50 µg/cm2 [2]: 50 to 100% | YFM rating [3]: A (80–100)

O=C(CCC1CC1)Nc1c(F)ccc(NC(=O)c2cc(NC(=O)[C@H]3[C@H](c4ccc(F)c(C(F)(F)F)c4)C3(Cl)Cl)ccc2Cl)c1F [F1854, 2-Chloro-N-(3-(3-cyclopropylpropanamido)-2,4-difluorophenyl)-5-((1R,3R)-2,2-dichloro-3-(4-fluoro-3-(trifluoromethyl)phenyl)cyclopropane-1-carboxamido)benzamide]
pest or weed control at 50 µg/cm2 [1]: 50 to 100% | pest or weed control at 50 µg/cm2 [2]: 50 to 100% | YFM rating [3]: A (80–100)

CC(C)(C)CCCC(=O)Nc1c(F)ccc(NC(=O)c2cc(NC(=O)[C@H]3[C@H](c4ccc(F)c(C(F)(F)F)c4)C3(Cl)Cl)ccc2Cl)c1F [F1856, 2-Chloro-5-((1R,3R)-2,2-dichloro-3-(4-fluoro-3-(trifluoromethyl)phenyl)cyclopropane-1-carboxamido)-N-(3-(5,5-dimethylhexanamido)-2,4-difluorophenyl)benzamide]
pest or weed control at 50 µg/cm2 [1]: 50 to 100% | pest or weed control at 50 µg/cm2 [2]: 50 to 100% | YFM rating [3]: B (More than 0 – Less than 80)

C#CCCCC(=O)Nc1c(F)ccc(NC(=O)c2cc(NC(=O)[C@H]3[C@H](c4ccc(F)c(C(F)(F)F)c4)C3(Cl)Cl)ccc2Cl)c1F [F1857]
pest or weed control at 50 µg/cm2 [1]: 50 to 100% | pest or weed control at 50 µg/cm2 [2]: 50 to 100% | YFM rating [3]: A (80–100)

O=C(CCC(F)(OC(F)(F)F)C(F)(F)F)Nc1c(F)ccc(NC(=O)c2cc(NC(=O)[C@H]3[C@H](c4ccc(F)c(C(F)(F)F)c4)C3(Cl)Cl)ccc2Cl)c1F (stereo partly drawn) [F1858, 2-Chloro-5-((1R,3R)-2,2-dichloro-3-(4-fluoro-3-(trifluoromethyl)phenyl)cyclopropane-1-carboxamido)-N-(2,4-difluoro-3-(4,5,5,5-tetrafluoro-4-(trifluoromethoxy)pentanamido)phenyl)benzamide]
pest or weed control at 50 µg/cm2 [1]: 50 to 100% | pest or weed control at 50 µg/cm2 [2]: 50 to 100% | YFM rating [3]: A (80–100)

CC(CC(F)(F)F)C(=O)Nc1c(F)ccc(NC(=O)c2cc(NC(=O)[C@H]3[C@H](c4ccc(F)c(Cl)c4)C3(Cl)Cl)ccc2Cl)c1F (stereo partly drawn) [F1866, 2-Chloro-5-((1R,3R)-2,2-dichloro-3-(3-chloro-4-fluorophenyl)cyclopropane-1-carboxamido)-N-(2,4-difluoro-3-(4,4,4-trifluoro-2-methylbutanamido)phenyl) benzamide]
pest or weed control at 50 µg/cm2 [1]: 50 to 100% | pest or weed control at 50 µg/cm2 [2]: 50 to 100% | YFM rating [3]: A (80–100)

C/C=C/C(=O)Nc1c(F)ccc(NC(=O)c2cc(NC(=O)[C@H]3[C@H](c4ccc(F)c(C(F)(F)F)c4)C3(Cl)Cl)ccc2Cl)c1F [F1868, N-(3-((E)-But-2-enamido)-2,4-difluorophenyl)-2-chloro-5-((1R,3R)-2,2-dichloro-3-(4-fluoro-3-(trifluoromethyl)phenyl)cyclopropane-1-carboxamido)benzamide]
pest or weed control at 50 µg/cm2 [1]: 50 to 100% | pest or weed control at 50 µg/cm2 [2]: 50 to 100% | YFM rating [3]: A (80–100)

O=C(/C=C/C(F)(F)F)Nc1c(F)ccc(NC(=O)c2cc(NC(=O)[C@H]3[C@H](c4ccc(F)c(C(F)(F)F)c4)C3(Cl)Cl)ccc2Cl)c1F [F1869, 2-Chloro-5-((1R,3R)-2,2-dichloro-3-(4-fluoro-3-(trifluoromethyl)phenyl)cyclopropane-1-carboxamido)-N-(2,4-difluoro-3-((E)-4,4,4-trifluorobut-2-enamido)phenyl)benzamide]
pest or weed control at 50 µg/cm2 [1]: 50 to 100% | pest or weed control at 50 µg/cm2 [2]: 50 to 100% | YFM rating [3]: A (80–100)

C=C(F)C(=O)Nc1c(F)ccc(NC(=O)c2cc(NC(=O)[C@H]3[C@H](c4ccc(F)c(C(F)(F)F)c4)C3(Cl)Cl)ccc2Cl)c1F [F1870, 2-Chloro-5-((1R,3R)-2,2-dichloro-3-(4-fluoro-3-(trifluoromethyl)phenyl)cyclopropane-1-carboxamido)-N-(2,4-difluoro-3-(2-fluoroacrylamido)phenyl)benzamide]
pest or weed control at 50 µg/cm2 [1]: 50 to 100% | pest or weed control at 50 µg/cm2 [2]: 50 to 100% | YFM rating [3]: A (80–100)

C=CCC(=O)Nc1c(F)ccc(NC(=O)c2cc(NC(=O)[C@H]3[C@H](c4ccc(F)c(C(F)(F)F)c4)C3(Cl)Cl)ccc2Cl)c1F [F1874, N-(3-(But-3-enamido)-2,4-difluorophenyl)-2-chloro-5-((1R,3R)-2,2-dichloro-3-(4-fluoro-3-(trifluoromethyl)phenyl)cyclopropane-1-carboxamido)benzamide]
pest or weed control at 50 µg/cm2 [1]: 50 to 100% | pest or weed control at 50 µg/cm2 [2]: 50 to 100% | YFM rating [3]: A (80–100)

C=CCC(=O)Nc1c(F)ccc(NC(=O)c2cc(NC(=O)[C@H]3[C@H](c4ccc(F)c(Cl)c4)C3(Cl)Cl)ccc2Cl)c1F [F1876, N-(3-(But-3-enamido)-2,4-difluorophenyl)-2-chloro-5-((1R,3R)-2,2-dichloro-3-(3-chloro-4-fluorophenyl)cyclopropane-1-carboxamido)benzamide]
pest or weed control at 50 µg/cm2 [1]: 50 to 100% | pest or weed control at 50 µg/cm2 [2]: 50 to 100% | YFM rating [3]: A (80–100)

C=CCC(=O)Nc1c(F)ccc(NC(=O)c2cc(NC(=O)[C@H]3[C@H](c4cccc(C(F)(F)F)c4)C3(Cl)Cl)ccc2Cl)c1F [F1878, N-(3-(But-3-enamido)-2,4-difluorophenyl)-2-chloro-5-((1R,3R)-2,2-dichloro-3-(3-(trifluoromethyl)phenyl)cyclopropane-1-carboxamido)benzamide]
pest or weed control at 50 µg/cm2 [1]: 50 to 100% | pest or weed control at 50 µg/cm2 [2]: 50 to 100% | YFM rating [3]: A (80–100)

C=CCC(=O)Nc1c(F)ccc(NC(=O)c2cc(NC(=O)[C@H]3[C@H](c4cc(F)cc(C(F)(F)F)c4)C3(Cl)Cl)ccc2Cl)c1F [F1879, N-(3-(But-3-enamido)-2,4-difluorophenyl)-2-chloro-5-((1R,3R)-2,2-dichloro-3-(3-fluoro-5-(trifluoromethyl)phenyl)cyclopropane-1-carboxamido)benzamide]
pest or weed control at 50 µg/cm2 [1]: 50 to 100% | pest or weed control at 50 µg/cm2 [2]: 50 to 100% | YFM rating [3]: A (80–100)

O=C(NCC(F)(F)F)c1cc(NC(=O)C2C(c3cc(Br)cc(S(F)(F)(F)(F)F)c3)C2(Cl)Cl)ccc1Cl (stereo not drawn) [F2009, cis-5-(3-(3-Bromo-5-(pentafluoro-λ^6-sulfanyl)phenyl)-2,2-dichiorocyclopropane-1-carboxamido)-2-chloro-N-(2,2,2-trifluoroethyl)benzamide]
pest or weed control at 50 µg/cm2 [1]: 50 to 100% | pest or weed control at 50 µg/cm2 [2]: 50 to 100% | YFM rating [3]: A (80–100)

O=C(CCNC(=O)c1cc(NC(=O)C2C(c3cc(Cl)cc(Cl)c3)C2(Cl)Cl)ccc1Cl)NCC(F)(F)F [F2079, trans-2-Chloro-5-((1R,3R)-2,2-dichloro-3-(3,5-dichlorophenyl)cyclopropane-1-carboxamido)-N-(3-oxo-3-(2,2,2-trifluoroethylamino)propyl)benzamide]
pest or weed control at 50 µg/cm2 [1]: 50 to 100% | pest or weed control at 50 µg/cm2 [2]: 50 to 100% | YFM rating [3]: A (80–100)

O=C(NCC(F)(F)C(F)(F)F)c1cc(NC(=O)[C@H]2[C@H](c3ccc(F)c(C(F)(F)F)c3)C2(Cl)Cl)c(F)cc1Cl [F2085, 2-Chloro-5-((1R,3R)-2,2-dichloro-3-(4-fluoro-3-(trifluoromethyl)phenyl)cyclopropane-1-carboxamido)-4-fluoro-N-(2,2,3,3,3-pentafluoropropyl)benzamide]
pest or weed control at 50 µg/cm2 [1]: 50 to 100% | pest or weed control at 50 µg/cm2 [2]: 50 to 100% | YFM rating [3]: A (80–100)

CC(F)(F)CNC(=O)c1cc(NC(=O)C2C(c3cc(Cl)cc(Cl)c3)C2(Cl)Cl)cc(F)c1Cl (stereo not drawn) [F2087]
pest or weed control at 50 µg/cm2 [1]: 50 to 100% | pest or weed control at 50 µg/cm2 [2]: 50 to 100% | YFM rating [3]: A (80–100)
